This passage reports IC50 results from EP4667458A1 (Kanaph Therapeutics Inc., priority 2023, dated 2024).

Some results are limits rather than exact numbers.

This experiment concerns the target T1, KRAS^G12C::SOS1 (Homo sapiens, UniProt Q07889).
T1 sequence (Q07889 1-1333): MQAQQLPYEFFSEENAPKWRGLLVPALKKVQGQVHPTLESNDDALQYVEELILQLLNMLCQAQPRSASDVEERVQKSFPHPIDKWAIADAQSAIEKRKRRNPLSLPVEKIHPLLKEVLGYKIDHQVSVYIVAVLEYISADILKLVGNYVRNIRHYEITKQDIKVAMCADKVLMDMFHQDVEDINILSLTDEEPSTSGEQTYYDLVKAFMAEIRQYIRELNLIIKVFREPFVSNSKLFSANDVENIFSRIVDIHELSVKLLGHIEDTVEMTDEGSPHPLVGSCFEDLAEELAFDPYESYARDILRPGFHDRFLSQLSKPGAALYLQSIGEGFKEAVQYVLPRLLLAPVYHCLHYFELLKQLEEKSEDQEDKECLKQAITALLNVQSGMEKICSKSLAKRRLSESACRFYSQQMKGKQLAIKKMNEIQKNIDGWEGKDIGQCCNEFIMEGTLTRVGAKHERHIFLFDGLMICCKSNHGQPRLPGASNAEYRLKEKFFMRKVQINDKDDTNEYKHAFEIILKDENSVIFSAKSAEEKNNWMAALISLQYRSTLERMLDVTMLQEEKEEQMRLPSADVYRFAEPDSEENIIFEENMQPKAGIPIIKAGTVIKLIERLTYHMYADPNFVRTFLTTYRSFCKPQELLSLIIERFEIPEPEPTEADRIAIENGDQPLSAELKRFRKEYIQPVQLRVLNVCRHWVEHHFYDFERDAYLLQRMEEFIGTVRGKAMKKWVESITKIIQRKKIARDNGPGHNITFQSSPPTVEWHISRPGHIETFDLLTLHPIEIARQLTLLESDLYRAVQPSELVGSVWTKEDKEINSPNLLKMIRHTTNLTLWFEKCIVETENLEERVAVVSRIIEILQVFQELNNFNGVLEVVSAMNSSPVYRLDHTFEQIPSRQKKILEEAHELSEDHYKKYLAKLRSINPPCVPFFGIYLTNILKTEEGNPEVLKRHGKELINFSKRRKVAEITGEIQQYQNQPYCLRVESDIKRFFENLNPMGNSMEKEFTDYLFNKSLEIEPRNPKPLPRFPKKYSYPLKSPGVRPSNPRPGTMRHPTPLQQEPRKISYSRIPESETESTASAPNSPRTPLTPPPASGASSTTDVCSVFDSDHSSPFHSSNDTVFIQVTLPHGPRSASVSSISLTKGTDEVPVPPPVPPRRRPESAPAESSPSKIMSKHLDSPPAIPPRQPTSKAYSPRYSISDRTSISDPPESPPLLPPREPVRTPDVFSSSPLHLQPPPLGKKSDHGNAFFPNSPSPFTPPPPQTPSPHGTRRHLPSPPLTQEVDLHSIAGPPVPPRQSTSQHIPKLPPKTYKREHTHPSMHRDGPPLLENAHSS
Put plainly: KRAS G12C::SOS1 protein-protein interaction (PPI) inhibition assay (HTRF binding kit).
On to `C[C@@H](NC(=O)c1nn(-c2ccccc2)c(=O)cc1-c1ccccc1)c1cc(N)cc(C(F)(F)F)c1` [Example 368, N-[(1R)-1-[3-amino-5-(trifluoromethyl)phenyl]ethyl]-6-oxo-1,4-diphenyl-pyridazine-3-carboxamide], for which the IC50 (commonly the concentration at which inhibition is half-maximal) is less than 1000 nM.
The same measure for `C[C@@H](NC(=O)c1ccc(=O)n(-c2cccc(-c3cnnn3C)c2)n1)c1cc(N)cc(C(F)(F)F)c1` [Example 369, N-[(1R)-1-[3-amino-5-(trifluoromethyl)phenyl]ethyl]-1-[3-(3-methyltriazol-4-yl)phenyl]-6-oxo-pyridazine-3-carboxamide]: less than 1000 nM.
Turning to `C[C@@H](NC(=O)c1ccc(=O)n(-c2cc(-c3cnnn3C)ccc2F)n1)c1cccc(C(F)(F)CO)c1F` [Example 372, N-[(1R)-1-[3-(1,1-difluoro-2-hydroxy-ethyl)-2-fluoro-phenyl]ethyl]-1-[2-fluoro-5-(3-methyltriazol-4-yl)phenyl]-6-oxo-pyridazine-3-carboxamide], the IC50 was less than 1000 nM.
`Cc1nnnn1-c1cccc(-n2nc(C(=O)N[C@H](C)c3cc(N)cc(C(F)(F)F)c3)ccc2=O)c1` [Example 373, N-[(1R)-1-[3-amino-5-(trifluoromethyl)phenyl]ethyl]-1-[3-(5-methyltetrazol-1-yl)phenyl]-6-oxo-pyridazine-3-carboxamide]: the IC50 is less than 1000 nM.
The result for `Cc1nnnn1-c1cccc(-n2cc(C(=O)N[C@H](C)c3cc(N)cc(C(F)(F)F)c3)ccc2=O)c1` [Example 374, N-[(1R)-1-[3-amino-5-(trifluoromethyl)phenyl]ethyl]-1-[3-(5-methyltetrazol-1-yl)phenyl]-6-oxo-pyridine-3-carboxamide] reads less than 1000 nM; that for `C[C@@H](NC(=O)c1ccc(=O)n(-c2ccccc2F)n1)c1cc(N)cc(C(F)F)c1` [Example 375, N-[(1R)-1-[3-amino-5-(difluoromethyl)phenyl]ethyl]-1-(2-fluorophenyl)-6-oxo-pyridazine-3-carboxamide], less than 1000 nM.
The result for `C[C@@H](NC(=O)c1ccc(=O)n(-c2cccc(-c3ccon3)c2)n1)c1cc(N)cc(C(F)(F)F)c1` [Example 376, N-[(1R)-1-[3-amino-5-(trifluoromethyl)phenyl]ethyl]-1-(3-isoxazol-3-ylphenyl)-6-oxo-pyridazine-3-carboxamide] reads less than 1000 nM; that for `C[C@@H](NC(=O)c1nn(-c2ccccc2F)c(=O)cc1N)c1cccc(C(F)(F)CO)c1F` [Example 379, 4-amino-N-[(1R)-1-[3-(1,1-difluoro-2-hydroxy-ethyl)-2-fluorophenyl]ethyl]-1-(2-fluorophenyl)-6-oxo-pyridazine-3-carboxamide], less than 1000 nM; that for `CC(=O)Nc1cc(=O)n(-c2ccccc2F)nc1C(=O)N[C@H](C)c1cccc(C(F)(F)COC(C)=O)c1F` [Example 380, [2-[3-[(1R)-1-[[4-acetamido-1-(2-fluorophenyl)-6-oxo-pyridazine-3-carbonyl]amino]ethyl]-2-fluoro-phenyl]-2,2-difluoro-ethyl] acetate], less than 1000 nM.
Molecule `C[C@@H](NC(=O)c1nn(-c2ccccc2F)c(=O)cc1N)c1cc(N)cc(C(F)(F)F)c1` [Example 381, 4-amino-N-[(1R)-1-[3-amino-5-(trifluoromethyl)phenyl]ethyl]-1-(2-fluorophenyl)-6-oxo-pyridazine-3-carboxamide] had an IC50 of less than 1000 nM.
As to `CC(=O)Nc1cc(=O)n(-c2ccccc2F)nc1C(=O)N[C@H](C)c1cc(N)cc(C(F)(F)F)c1` [Example 382, 4-acetamido-N-[(1R)-1-[3-amino-5-(trifluoromethyl)phenyl]ethyl]-1-(2-fluorophenyl)-6-oxo-pyridazine-3-carboxamide], the IC50 was less than 1000 nM.
The molecule `CNc1cc(=O)n(-c2ccccc2F)nc1C(=O)N[C@H](C)c1cc(N)cc(C(F)(F)F)c1` [Example 383, N-[(1R)-1-[3-amino-5-(trifluoromethyl)phenyl]ethyl]-1-(2-fluorophenyl)-4-(methylamino)-6-oxo-pyridazine-3-carboxamide] gave an IC50 of less than 1000 nM.
Consider `C[C@@H](NC(=O)c1nn(-c2ccccc2F)c(=O)cc1NS(C)(=O)=O)c1cc(N)cc(C(F)(F)F)c1` [Example 384, N-[(1R)-1-[3-amino-5-(trifluoromethyl)phenyl]ethyl]-1-(2-fluorophenyl)-4-(methanesulfonamido)-6-oxo-pyridazine-3-carboxamide], for which the IC50 was less than 1000 nM.
`Cc1ncc(-n2nc(C(=O)N[C@H](C)c3cc(N)cc(C(F)(F)F)c3)ccc2=O)s1` [Example 385, N-[(1R)-1-[3-amino-5-(trifluoromethyl)phenyl]ethyl]-1-(2-methylthiazol-5-yl)-6-oxo-pyridazine-3-carboxamide]: the IC50 was less than 1000 nM.
Take `Cc1nc(-n2nc(C(=O)N[C@H](C)c3cc(N)cc(C(F)(F)F)c3)ccc2=O)cs1` [Example 386, N-[(1R)-1-[3-amino-5-(trifluoromethyl)phenyl]ethyl]-1-(2-methylthiazol-4-yl)-6-oxo-pyridazine-3-carboxamide]: the IC50 was less than 1000 nM.
`C[C@@H](NC(=O)c1ccc(=O)n(-c2ccn(C)n2)n1)c1cc(N)cc(C(F)(F)F)c1` [Example 387, N-[(1R)-1-[3-amino-5-(trifluoromethyl)phenyl]ethyl]-1-(1-methylpyrazol-3-yl)-6-oxo-pyridazine-3-carboxamide]: the IC50 is less than 1000 nM.
`C[C@@H](NC(=O)c1ccc(=O)n(-c2ncccc2F)n1)c1cc(N)cc(C(F)(F)F)c1` [Example 388] registered an IC50 of more than 10000 nM.
The molecule `C[C@H](NC(=O)c1ccc(=O)n(-c2ccccc2F)n1)c1cc(N)cc(C(F)(F)F)n1` [Example 394, N-[(1S)-1-[4-amino-6-(trifluoromethyl)-2-pyridyl]ethyl]-1-(2-fluorophenyl)-6-oxo-pyridazine-3-carboxamide] showed an IC50 of more than 10000 nM.
The same measure for `C[C@@H](NC(=O)c1ccc(=O)n(-c2ccccc2F)n1)c1cc(N)cc(C(F)(F)F)n1` [Example 395, N-[(1R)-1-[4-amino-6-(trifluoromethyl)-2-pyridyl]ethyl]-1-(2-fluorophenyl)-6-oxo-pyridazine-3-carboxamide]: 1000 to 10000 nM; for `CNCc1ccc(F)cc1-c1ncc([C@@H](C)NC(=O)c2ccc(=O)n(-c3ccccc3F)n2)s1` [Example 396, N-[(1R)-1-[2-[5-fluoro-2-(methylaminomethyl)phenyl]thiazol-5-yl]ethyl]-1-(2-fluorophenyl)-6-oxo-pyridazine-3-carboxamide]: less than 1000 nM.
Consider `COCC(F)(F)c1cccc([C@@H](C)NC(=O)c2ccc(=O)n(-c3cccc(-c4cnnn4C)c3)n2)c1F` [Example 397], for which the IC50 was less than 1000 nM.
For the molecule `CNCc1ccccc1-c1ccc([C@@H](C)NC(=O)c2ccc(=O)n(-c3ccc(F)cc3F)n2)s1` [Example 398, (R)-1-(2,4-difluorophenyl)-N-(1-(5-(2-((methylamino)methyl)phenyl)thiophenyl-2-yl)ethyl)-6-oxo-1,6-dihydropyridazine-3-carboxamide], the IC50 is less than 1000 nM.
The molecule `CNCc1cc(F)c(Cl)cc1-c1ccc([C@@H](C)NC(=O)c2ccc(=O)n(-c3cccnc3F)n2)s1` [Example 399, N-[(1R)-1-(5-{5-chloro-4-fluoro-2-[(methylamino)methyl]phenyl}thiophen-2-yl)ethyl]-1-(2-fluoropyridin-3-yl)-6-oxo-1,6-dihydropyridazine-3-carboxamide] registered an IC50 of less than 1000 nM.
